{
  "source": "patent US20260284043A1",
  "about": "“COMPOUNDS FOR UPREGULATING UTROPHIN LEVELS IN MUSCLE CELLS AND METHOD OF APPLICATION THEREOF” (Peptris Technologies Private Limited, priority 2023, published 2026)",
  "key": {"Utrophin": {"tested_on": "Utrophin", "experiment": "Utrophin upregulation (mRNA fold change, RT-PCR) in differentiated C2C12 myoblast cells", "format": "cell-based, mouse", "conditions": "24 hours; for fold change of utrophin: C2C12 myoblast cells differentiated seven days, 10 μM, FIG. 1", "description": "C2C12 myoblast cells are seeded in the well plate with a growth medium (10% FBS and DMEM). After they reached 70% confluence, the cells are added to the differentiation medium (2% HS and DMEM) and differentiated for seven days. Stock solutions are prepared for Sitagliptin and other DPP-IV inhibitors viz., Melogliptin, Linagliptin, Vildagliptin, and Teneligliptin in DMSO. The cells are treated with a final concentration of 10 μM stock solution for 24 hours. RNA isolation is carried out using the Qiagen assay kit and quantified using NanodropRT-PCR for Utrophin Upregulation.\nUsing the same protocol for Example 1, C2C 12 myoblast cells are treated with sitagliptin for 24 hours. Ezutromid is a known utrophin up-regulator and used as a positive control. RNA isolation and RT-PCR are done to quantify the fold change in utrophin mRNA expression. FIG. 2 presents the fold change in mRNA expression of Utrophin on C2C12 mouse skeletal muscle myoblasts at 10 uM sitagliptin compared to 10 uM Ezutromid."}, "D2.mdx mice [1]": {"tested_on": "D2.mdx mice", "experiment": "Rotarod test in D2.mdx mice", "format": "in vivo, mouse", "conditions": "50 mg/kg p.o. q.d., 28 days, FIG. 7", "description": "(§1) All the functional experimental parameters are evaluated in mdx background wild-type mice and in D2.mdx mice (D2.B10-DMD mdx/J mice procured from Jackson laboratories (Strain #013141), Bar Harbor, Maine (ME), USA 04609. The test item, Sitagliptin 50 mg/kg, is orally (p.o.) administered once daily (q.d.) at a dose volume of 10 mL/kg. Sitagliptin suspended in formulation containing 0.1% Tween 20 and 0.5% Carboxymethyl cellulose (CMC) is administered once daily for 28 days via the oral route. The wild-type control and mdx control groups received the vehicle (0.5% Carboxy methyl cellulose (CMC) containing 0.1% Tween 20) alone. Body weight of the study animals is recorded before the study (pre-dose) and twice weekly/daily throughout the study. Animals are also monitored for clinical signs, mortality, and morbidity. […] Muscle function is assessed through grip strength test using a Grip strength meter (Orchid Scientific, Model No.: […], India), hanging test, treadmill running, and rotarod test (Orchid Scientific, India) in response to Vehicle and Sitagliptin (50 mg/kg, p.o.) treatments. […] The efficacy of Sitagliptin is evaluated by comparing the functional test parameters and serum CK levels of the treated group with that of the mdx-control group in comparison to the basal value of Wild-type group. […]"}, "D2.mdx mice [2]": {"tested_on": "D2.mdx mice", "experiment": "Hanging test in D2.mdx mice", "format": "in vivo, mouse", "conditions": "50 mg/kg p.o. q.d., irrespective of treadmill stress, compared with wild type mice, FIGS. 6A and 6B", "description": "as §1"}, "D2.mdx mice [3]": {"tested_on": "D2.mdx mice", "experiment": "Serum Creatinine Kinase level in D2.mdx mice after treadmill test", "format": "in vivo, mouse", "conditions": "50 mg/kg p.o. q.d., 28 days, measured within 30 minutes after treadmill test, FIG. 8", "experimental": "All the functional experimental parameters are evaluated in mdx background wild-type mice and in D2.mdx mice (D2.B10-DMD mdx/J mice procured from Jackson laboratories (Strain #013141), Bar Harbor, Maine (ME), USA 04609. The test item, Sitagliptin 50 mg/kg, is orally (p.o.) administered once daily (q.d.) at a dose volume of 10 mL/kg. Sitagliptin suspended in formulation containing 0.1% Tween 20 and 0.5% Carboxymethyl cellulose (CMC) is administered once daily for 28 days via the oral route. The wild-type control and mdx control groups received the vehicle (0.5% Carboxy methyl cellulose (CMC) containing 0.1% Tween 20) alone. […] All three group mice (Wild-type, DMD-Control & DMD-Sitagliptin) underwent functional tests at week 0 (Basal-Day 0), week 2 (Day 14) and at the end of the study (week 4 or Day 28). […] Blood samples are collected for Creatine kinase (CK) analysis 30 min after Treadmill functional test on Day 0, 14 & Day 28. The efficacy of Sitagliptin is evaluated by comparing the functional test parameters and serum CK levels of the treated group with that of the mdx-control group in comparison to the basal value of Wild-type group. […] Treadmill, grip strength, hanging, rotarod, and creatine kinase tests are recorded on day 0, day 14 and day 28. […] Serum Creatinine Kinase level is measured within 30 minutes after the mice are subjected to Treadmill tests."}, "D2.mdx mice [4]": {"tested_on": "D2.mdx mice", "experiment": "28th day summary of functional tests in D2.mdx mouse models", "format": "in vivo", "conditions": "50 mg/kg p.o. q.d., day 28, vs DMD disease control mice, FIG. 9A-9F", "description": "as §1"}, "D2.mdx mice [5]": {"tested_on": "D2.mdx mice", "experiment": "Treadmill test in D2.mdx mice", "format": "in vivo, mouse", "conditions": "50 mg/kg p.o. q.d., 28 days, vs DMD-Control", "description": "as §1"}, "D2.mdx mice [6]": {"tested_on": "D2.mdx mice", "experiment": "Grip strength test in D2.mdx mice", "format": "in vivo, mouse", "conditions": "50 mg/kg p.o. q.d., before treadmill stress, compared with wild type mice, FIG. 5A", "description": "as §1"}},
  "data": [
    {"smiles": "CC#CCn1c(N2CCC[C@@H](N)C2)nc2c1c(=O)n(Cc1nc(C)c3ccccc3n1)c(=O)n2C", "note": "[Linagliptin, 8-[(3R)-3-Aminopiperidin-1-yl]-7-(but-2-yn-1-yl)-3-methyl-1-[(4-methylquinazolin-2-yl)methyl]-3,7-dihydro-1H-purine-2,6-dione]", "values": [
      {"measurement": "fold change of utrophin", "setting": "Utrophin", "value": "capable of upregulating utrophin levels"}
    ]},
    {"smiles": "N#C[C@@H]1C[C@H](F)CN1C(=O)CN[C@@H]1CC[C@H](Cn2cncn2)C1", "note": "[Melogliptin, (2S,4S)-4-fluoro-1-[2-[[(1R,3S)-3-(1,2,4-triazol-1-ylmethyl)cyclopentyl]amino]acetyl]pyrrolidine-2 carbonitrile]", "values": [
      {"measurement": "fold change of utrophin", "setting": "Utrophin", "value": "capable of upregulating utrophin levels"}
    ]},
    {"smiles": "N[C@@H](CC(=O)N1CCn2c(nnc2C(F)(F)F)C1)Cc1cc(F)c(F)cc1F", "note": "[Sitagliptin, (R)-4-oxo-4-[3-(trifluoromethyl)-5,6-dihydro[1,2,4]triazolo[4,3-a]pyrazin-7(8H)-yl]-1-(2,4,5-trifluorophenyl)butan-2-amine]", "values": [
      {"measurement": "latency to fall (rotarod)", "setting": "D2.mdx mice [1]", "value": "sustained improvements in overall muscle coordination"},
      {"measurement": "hanging latency pre- and post-treadmill", "setting": "D2.mdx mice [2]", "value": "perform comparably with wild type mice"},
      {"measurement": "Serum Creatinine Kinase levels", "setting": "D2.mdx mice [3]", "value": "significant reductions"},
      {"measurement": "fold change in mRNA expression of Utrophin compared to Ezutromid", "setting": "Utrophin; C2C12 mouse skeletal muscle myoblasts, 10 uM sitagliptin vs 10 uM Ezutromid (positive control), FIG. 2", "value": "superior upregulation of utrophin compared Ezutromid"},
      {"measurement": "fold change of utrophin", "setting": "Utrophin", "value": "capable of upregulating utrophin levels"},
      {"measurement": "all functional parameters (distance travelled, time to exhaust, grip strength, hanging test), 28th day summary", "setting": "D2.mdx mice [4]", "value": "robust improvement in all the functional parameters"},
      {"measurement": "distance travelled in 30 mins (treadmill)", "setting": "D2.mdx mice [5]; FIG. 4A", "value": "significant and sustained improvement"},
      {"measurement": "time to exhaust (treadmill)", "setting": "D2.mdx mice [5]; FIG. 4B", "value": "significant and sustained improvement"},
      {"measurement": "normalized grip strength pre-treadmill", "setting": "D2.mdx mice [6]", "value": "could grip as well as the wild type mice"}
    ]},
    {"smiles": "Cc1cc(N2CCN([C@@H]3CN[C@H](C(=O)N4CCSC4)C3)CC2)n(-c2ccccc2)n1", "note": "[Teneligliptin, {(2S,4S)-4-[4-(3-Methyl-1-phenyl-1H-pyrazol-5-yl)-1-piperazinyl]-2-pyrrolidinyl}(1,3-thiazolidin-3-yl)methanone]", "values": [
      {"measurement": "fold change of utrophin", "setting": "Utrophin", "value": "capable of upregulating utrophin levels"}
    ]},
    {"smiles": "N#C[C@@H]1CCCN1C(=O)CNC12CC3CC(CC(O)(C3)C1)C2", "note": "[Vildagliptin, (S)-1-[2-(3-Hydroxyadamantan-1-ylamino)acetyl]pyrrolidine-2-carbonitrile]", "values": [
      {"measurement": "fold change of utrophin", "setting": "Utrophin", "value": "capable of upregulating utrophin levels"}
    ]}
  ]
}
